Source: patent publication US20030134779A1, “Method and composition for treatment and/or prevention of antibiotic-resistant microorganism infections” (priority 2002, published 2003)

How the values were obtained:
Assay type in all cases: cell-based, Staphylococcus aureus
[1] = test system: β-lactamase (BlaZ) gene expression in S. aureus strain SHY97-4320; experiment: BlaZ gene expression, real-time quantitative RT-PCR, and total RNA
Description: Fresh MHB containing or not 8 μg/ml of penicillin G and/or 1 mg/ml of bovine LF (2×2 factorial design) was adjusted to an optical density at 540 nm of 0.04 with an overnight culture of S. aureus and then incubated at 37° C. with agitation (150 rpm). After 4 and 22-h of incubation, aliquots were removed to determine bacterial growth by viable count (colony forming unit per ml, cfu/ml), measuring the culture turbidity (OD540nm) with a spectrophotometer Philips PU and to measure β-lactamase activity in bacterial cells. Following culture under the same condition, bacterial cells were collected for RNA extraction.
Total bacterial RNA was prepared using the RNeasy minikit (Qiagen, Mississauga, ON, Canada). Washed bacteria were first treated with 50 μg/ml of lysostaphin (GramCracker, Ambion, Austin, Tex.) for 10 min at 37° C. and RNA was purified according to the manufacturer's protocol. Contaminating DNA was removed from total RNA by using 1 U of Rnase-free Dnase I (Gibco Life Technologies, Grand Island, N.Y.) in a 10 μl reaction mixture containing approximately 50 ng of total RNA per μl and 20mM Tris-HCl (pH 8.4), 2 mM MgCl2 and 50 mM KCl. The reaction mixture was incubated for 15 min at room temperature, and the Dnase I was inactivated by adding 1 μl of 25 mM EDTA to the mixture and incubating for 10 min at 65° C. before assessing quantity and purity. Amount of cellular RNA was then determined by measuring the OD260 nm and OD280 nm.
Real-Time fluorescence-based 5′ nuclease PCR which is a widely accepted method for measuring gene expression levels was used to quantify β-lactamase BlaZ RNA by RT-PCR on ABI Prism™ 7700 (TaqMan® ) sequence detector (PE Applied Biosystem, Foster City, Calif.). The forward primer, reverse.primer, and TaqMan probe for Real-Time RT-PCR amplification were designed with the PrimerExpress software (PE Applied Biosystem) to specifically amplify the. S. aureus BLAZ gene. Briefly, RNA (50 ng) was added to a 50 μl reaction mixture containing 25 μl of 2×RT-PCR One-Step Universal Master Mix, 1.25 μl of 40×MultiScribe and Rnase Inhibitor Mix, 4.5 μl of the forward primer (10 μM, 5′-[…]-3′, SEQ ID NO:3), 4.5 μl of the reverse primer (10 μM, 5′-[…]-3′, SEQ ID NO:4), and 1.25 μl of TaqMan probe (10 μM, 6FAM-[…]-TAMRA, SEQ ID NO:5). Reverse transcription with the recombinant Moloney Murine Leukemia Virus (M-MuLV) Reverse Transcriptase (0.25 U/μl) was conducted at 48° C. for 30 min. […] The cycle threshold value (CT), indicative of the quantity of target gene at which the fluorescence exceeds a pre-set threshold, was determined and compared to the CT of a standard curve containing known amounts of mRNA (1.1×10^2 to 1.1×10^9) from the BLAZ gene of S. aureus obtained by in vitro transcription. […]

S. aureus SHY97-4320 [2] = experiment: Cell morphology by transmission electron microscopy
Description: Microorganisms were prepared for transmission electron microscopy by fixation with glutaraldehyde followed by ferritin labelling. This method allows good- preservation of capsular material. Briefly, bacterial cells grown in the presence or absence of antibiotics were fixed in cacodylate buffer (0.1 M, pH 7.0) containing 5% (v/v) glutaraldehyde, for 2 h at 20° C. Fixed microorganims were suspended in cacodylate buffer and allowed to react with the polycationic ferritin (Sigma Chemicals, St-Louis, Mo.; final concentration 1.0 mg/ml) for 30 min at 20° C. The reaction was slowed down by 10-fold dilution with buffer, and the microorganisms were centrifuged and washed three times in cacodylate buffer. Bacterial cells were then immobilized in 4% (w/v) agar, washed 5 times in cacodylate buffer and post-fixed with 2% (w/v) osmium tetroxide for 2 h. Washings were repeated as above, and the samples dehydrated in a graded series of acetone washes. Samples were then washed twice in propylene oxide and embedded in Spurr low-viscosity resin. Thin sections were post-stained with uranyl acetate and lead citrate and examined with an electron microscope (Philips 201) at an accelerating voltage of 60 kV.

S. aureus SHY97-4320 [3] = experiment: SDS-PAGE protein profile of whole cells; conditions: compound alone: 8 μg/ml penicillin G or 1 mg/ml LF; 4-h of growth
Description: Staphylococcus aureus SHY97-4320 cells growth in MHB containing test compounds were suspended in electrophoresis sample buffer containing 2% sodium dodecyl sulfate (SDS) and 5% 2-mercaptoethanol to a final concentration of 0.1 g per ml. The samples were heated to 100° C. for 5 min before being loaded for electrophoresis on a discontinuous 0.1% SDS-polyacrylamide gel (SDS PAGE) with 6% polyacrylamide stacking gel and 10 or 12% polyacrylamide running gel. Gels were run on a Mini-Protean® II apparatus (Bio Rad laboratories, Richmond, Calif.). Protein profiles were visualised by staining with coomassie brilliant blue R-250 or by silver staining.

Q: Which “BlaZ total: total number of copies of BlaZ gene mRNA/ml of culture” value ([1]; LF 1 mg/ml and/or penicillin G) does the source give for `CC1(C)S[C@@H]2[C@H](NC(=O)Cc3ccccc3)C(=O)N2[C@H]1C(=O)O` [penicillin G, Penicillin G] here?
A: 174.9 × 10^5 copies/ml of culture

Q: What about the “BlaZ: number of copies of BlaZ gene mRNA/50 ng of mRNA” value ([1]; LF 1 mg/ml and/or penicillin G) of the same molecule?
A: 22.9 × 10^4 copies/50 ng of mRNA

Q: And the RNA ([1]; adjusted for an OD540nm of 1.0, LF 1 mg/ml and/or penicillin G)?
A: 3.22 ± 0.49 :g/ml

Q: What about the “increase in the number of copies of the BlaZ mRNA per ml of culture” value ([1]; penicillin G added to the growth medium, P<0.01) of the same molecule?
A: 28 fold

Q: What about the cell morphology (S. aureus SHY97-4320 [2]; penicillin G 8 μg/ml alone, 4-h) of the same molecule?
A: no visible effect

Q: And the cell morphology (S. aureus SHY97-4320 [2]; penicillin G 8 μg/ml combined with LF 1 mg/ml)?
A: morphology changes were similar to that observed in the susceptible strain

Q: And the “proteins of approximately 59, 42 and 27 kDa in protein profile” value (S. aureus SHY97-4320 [3])?
A: can be seen
